# Measured values as given in US8933011B2, “Treatment of preterm labor with toll-like receptor 9 antagonists” (The Provost, Fellows and Scholars of the College of the …, priority 2008, dated 2015).
# Entries after “also recorded” stand apart in the source; their conditions may differ.
# Target: T1, Toll-like Receptor 9 (Homo sapiens, UniProt Q9NR96)
# T1 construct: endogenous in cells; host or cells: Namalwa cells
# T1 sequence (Q9NR96 26-1032): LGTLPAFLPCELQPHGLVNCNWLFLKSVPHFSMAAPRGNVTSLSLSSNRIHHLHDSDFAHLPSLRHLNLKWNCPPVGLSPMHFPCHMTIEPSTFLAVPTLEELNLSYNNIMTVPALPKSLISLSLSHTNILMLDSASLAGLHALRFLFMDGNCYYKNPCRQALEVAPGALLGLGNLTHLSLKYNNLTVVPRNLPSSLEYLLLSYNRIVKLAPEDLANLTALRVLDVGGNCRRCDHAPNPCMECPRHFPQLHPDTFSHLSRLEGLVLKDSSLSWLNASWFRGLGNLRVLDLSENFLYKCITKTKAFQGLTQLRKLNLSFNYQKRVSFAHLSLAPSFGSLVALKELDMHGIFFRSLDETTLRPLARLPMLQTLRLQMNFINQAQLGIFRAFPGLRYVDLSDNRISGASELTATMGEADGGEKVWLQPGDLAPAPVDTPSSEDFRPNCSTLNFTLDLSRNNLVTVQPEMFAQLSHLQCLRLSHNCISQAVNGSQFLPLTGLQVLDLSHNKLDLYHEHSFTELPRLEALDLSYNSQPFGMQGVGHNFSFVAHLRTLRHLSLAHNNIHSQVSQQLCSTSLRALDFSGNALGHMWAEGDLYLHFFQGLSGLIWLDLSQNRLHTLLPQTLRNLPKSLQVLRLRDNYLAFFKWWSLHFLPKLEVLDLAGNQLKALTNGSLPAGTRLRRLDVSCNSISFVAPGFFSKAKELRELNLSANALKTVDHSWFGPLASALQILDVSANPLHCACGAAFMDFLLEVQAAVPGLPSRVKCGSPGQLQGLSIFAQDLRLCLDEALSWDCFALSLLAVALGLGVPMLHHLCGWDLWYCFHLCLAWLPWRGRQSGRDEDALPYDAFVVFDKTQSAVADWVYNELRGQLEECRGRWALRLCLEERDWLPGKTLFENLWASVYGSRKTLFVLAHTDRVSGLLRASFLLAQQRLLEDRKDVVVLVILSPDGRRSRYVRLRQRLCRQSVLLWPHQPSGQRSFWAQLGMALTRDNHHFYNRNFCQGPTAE
# Assay: Inhibition of fetal DNA induced I-kappa-B degradation in Namalwa cells by TLR9 inhibitors
# Format: cell-based
# Details: Namalwa cells pre-treated at 75 μM, then fetal DNA 3.0 μg/ml
# Description: Inhibition of Toll-like Receptor 9 was carried out using the Toll-like Receptor 9 antagonist cholorquine and a synthetic inhibitory oligodinucleotide (TTAGGG) which was obtained from InvivoGen. […] The recommended concentration from package inserts was to use a 10-100 microM concentration. […] The same fetal DNA (3.0 μg/ml) was then used to stimulate cells over time in minutes as described above.
# Namalwa cells (2.0×10^7 cells/ml) were also incubated with synthetic inhibitory TLR-9 oligonucleotide (ODN+) at an 8:1 ratio of oligodinucleotide (ODN) to ligand. The package insert recommended a 1-10:1 ratio of inhibitory oligodinucleotide (ODN) to stimulatory oligodinucleotide (ODN). […] This was followed by stimulation with the same purchased fetal DNA at 3.0 μg/ml using the method described hereinbefore.
# In FIGS. 5A and 6A Namalwa cells (2.0×10^7 cells/ml) were incubated with the inhibitory TLR-9 oligonucleotide (ODN+) in an 8:1 ratio of ODN to ligand. This was followed by stimulation with fetal DNA at a concentration of 3.0 μg/ml.
# In FIGS. 5B and 6B, the TLR9 antagonist cholorquine was used to pre-treat Namalwa cells at 2.0×10^7 cells/ml at a concentration of 75 μM. Fetal DNA (3.0 microg/ml) was then used to stimulate cells over time in minutes.
structure (smiles),measurement,setting,value
"CCN(CC)CCCC(C)Nc1ccnc2cc(Cl)ccc12 (centres unmarked) [chloroquine, N′-(7-chloroquinolin-4-yl)-N,N-diethyl-pentane-1,4-diamine]",inhibition of fetal DNA induced I-kappa-B degradation,,can also inhibit this response; also recorded: Induction of I-kappa-B degradation was inhibited; also recorded: blocked the effect of fetal DNA on I-kappaB degradation
same,inhibition of fetal DNA induced I-kappa-B degradation,listed as Chloroquine,blocked I-kappa-B degradation; also recorded: blocked 1-kappa-B degradation
